Data set [1] relates to novel coronavirus (2019-nCoV). The conditions noted are these: cited from earlier work.
Data set [2] in a line: Transfer rate assessment, liquid formulation to aerosol (Cambridge filter pad, LC-HR-MS). The conditions noted are these: 30 puffs collected.
Data set [3] is described as follows: Aerosol particle size distribution (Aerodynamic Particle Sizer). The conditions noted are these: thermal aerosolization 200-220° C., 40 mg/mL in propylene glycol.
Data set [4] relates to 3D organotypic human bronchial cultures. Description: Transepithelial electrical resistance (TEER). The conditions noted are these: post 24 h exposure.
The conditions of data set [5]: Frisk-Holmberg et al., Cui et al.; cited from earlier work.
Data set [6] relates to SARS-CoV-2 clinically isolated strain. The conditions noted are these: Vero cells, 24 hours, Yao et al.; cited from earlier work.
Data set [7] in a line: Thermal decomposition during thermal aerosolization (LC-HR-MS). The conditions noted are these: LC-HR-MS spectra of aerosol sample.

With `CCN(CC)CCCC(C)Nc1ccnc2cc(Cl)ccc12` (stereo not shown) [chloroquine], in data set [1] (block of COVID-19 infection in vitro, Wang et al., read-out: half-maximal effective concentration (EC50)), the EC50 is 1.13 µM. In data set [1] (values from Wang et al.), the “in vitro EC50” value is 0.362 µg/mL and the “in vitro EC90” value is 2.208 µg/mL. Also, the “amount per puff in aerosol” value in data set [2] (40 mg/mL chloroquine liquid formulation) was found to be 149.69 µg. In data set [3], the “median aerodynamic diameter of aerosol particles” value worked out at 1.3 μm. Also, in data set [4] (50 puffs), the TEER entry is given as “very low TEER values for two replicates”. Besides, the TEER result in data set [4] (100 puffs) was “no overall effect”. Further, in data set [5], the “plasma concentration at which no adverse reactions are observed” value is on record as 400 ng/mL and the “warning limit plasma concentration at which 80% of the subjects showed adverse effects” value was 800 ng/mL. In data set [6], the EC50 was 23.9 µM. Moreover, the “decomposition during thermal aerosolization” value in data set [7] is “no decomposition”.

`CCN(CCO)CCCC(C)Nc1ccnc2cc(Cl)ccc12` (stereo not shown) [hydroxychloroquine]: in data set [2] (100 mg/mL hydroxychloroquine liquid formulation), the “amount per puff in aerosol” value worked out at 330.32 µg. In addition, the “decomposition during thermal aerosolization” value in data set [7] was “no decomposition”.

Source of the values: US20230398068A1 (priority 2020, published 2023).
